Where “and” joins values, the source holds several entries; their conditions need not be identical. Identical values can stand only once.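 The compound was tested at five concentrations on cells cultured in 96-well plates, with a 48-hour exposure period. GI50: concentration for 50% inhibition of growth. TGI: total growth inhibition.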
Tests used:
Test in all cases: DTP human tumour cell line panel, 48 h
MDA-MB-435 = test system: MDA-MB-435
OVCAR-3 ovarian = test system: OVCAR-3 ovarian
TK-10 renal = test system: TK-10 renal
PC-3 prostate = test system: PC-3 prostate
UACC-62 melanoma = test system: UACC-62 melanoma
SN12C renal = test system: SN12C renal
HCT-116 colon = test system: HCT-116 colon
CCRF-CEM leukemia = test system: CCRF-CEM leukemia

Row | Compound | GI50 (MDA-MB-435) | TGI (MDA-MB-435) [µM] | GI50 (OVCAR-3 ovarian) | TGI (OVCAR-3 ovarian) | GI50 (TK-10 renal) | TGI (TK-10 renal) [µM] | GI50 (PC-3 prostate) | TGI (PC-3 prostate) [µM] | GI50 (UACC-62 melanoma) | TGI (UACC-62 melanoma) [µM] | GI50 (SN12C renal) | TGI (SN12C renal) [µM] | GI50 (HCT-116 colon) | TGI (HCT-116 colon) [µM] | GI50 (CCRF-CEM leukemia) | TGI (CCRF-CEM leukemia)
1 | CC(=O)Oc1ccc(C2(c3ccc(OC(C)=O)cc3)C(=O)Nc3ccccc32)cc1 | 30.6 µM and 29.8 µM | > 100 | 0.081 µM and 0.131 µM | > 35.8 µM and 26 µM | 3.14 µM and 17.6 µM | > 100 | 5.19 µM and 14.3 µM | > 100 | 34.8 µM and 43.5 µM | > 100 | 0.202 µM and 0.283 µM | > 68.3 | 34.1 µM and 25.8 µM | > 100 | 25.7 µM and 28.6 µM | > 100 µM and 99.3 µM
2 | COc1ccc(-c2cc(/C=C/C(=O)c3cc(OC)c(OC)c(OC)c3)[nH]n2)cc1OC | 1.78 µM | 4.05 | 1.59 µM | 3.15 µM | 3.27 µM | 11.8 | 1.99 µM | 10.3 | 1.79 µM | 3.88 | 1.77 µM | 3.83 | 0.425 µM | 1.79 | 0.342 µM | 3.13 µM
3 | O=c1oc2ccc(F)cc2c(=O)n1-c1ccc(Br)cc1F | 0.623 µM | 6.64 | 0.436 µM | 12.9 µM | 4.22 µM | 18 | 1.52 µM | 7.42 | 0.284 µM | 1.16 | 0.376 µM | 7.6 | 0.436 µM | 2.69 | 2.72 µM | > 100 µM
4 | CCCCCCCCCCCCCCCCS(=O)(=O)c1ccc(NN)cc1 |  | > 10 |  | > 10 µM |  | > 10 |  | > 10 |  | > 10 |  | > 10 |  | > 10 |  | 4.34 µM
5 | Fc1cc(-c2nnc3n2N=C(c2ccc(Cl)cc2Cl)CS3)c(Cl)cc1Cl | 24.5 µM | 75.9 | 22.8 µM | 88.1 µM | 77.3 µM | > 100 | 39.2 µM | > 100 | 24.9 µM | 99.6 | 56.4 µM | > 100 | 25.4 µM | 68.7 | 27.6 µM | > 100 µM
6 | Cc1n(Cc2ccc3ccccc3c2)c(Cl)c(Cl)[n+]1Cc1ccc2ccccc2c1 | 1.68 µM | 3.19 | 1.44 µM | 2.87 µM | 1.79 µM | 3.53 | 1.83 µM | 4.13 | 1.38 µM | 2.74 | 1.62 µM | 3.03 | 1.62 µM | 3.28 | 1.96 µM | 6.05 µM
7 | CCc1cccc(CC)c1/C=C/c1cncc(C(=O)NC)c1 | 2.85 µM | 10.5 | 8.14 µM | > 20.2 µM | > 18.2 µM | > 25 | 13.9 µM | > 25 | 10 µM | > 25 | 10.8 µM | > 25 | 9.46 µM | > 25 | 0.765 µM | > 25 µM
8 | COc1ccc2cc(-c3c(-c4ccncc4)nc(-c4ccc(S(C)=O)cc4C)n3C)ccc2c1 (stereo not given) | 11.2 µM | > 25 | 14.3 µM | > 25 µM | 7.62 µM | > 25 | 15.9 µM | > 25 | 13.8 µM | > 25 | 15.7 µM | > 25 | 17.9 µM | > 25 | > 25 µM | > 25 µM

— PubChem BioAssay (NCI)
